Measured values from patent US20260356830A1, “COMPOUNDS FOR MODULATING RET PROTEIN” (Bristol-Myers Squibb Company, priority 2022, published 2026).

Biological target: T1, CCDC6-RET (Homo sapiens, UniProt P07949+Q16204+Q96SW2)
T1 construct: CCDC6 (natural N-terminal fusion partner, UniProt Q16204); endogenous in cells; host or cells: TPC-1 (parental, papillary thyroid carcinoma)
Experiment: Cellular RET degradation, AlphaLISA, TPC-1 cell line
Type: cell-based
Details: for Dmax: TPC1, human, 24 h, read-out: Cell Density TPC-1/CCDC6-RET Ymax %; for DC50: read-out: Cell Density TPC-1/CCDC6-RET DC50, half-maximal degradation concentration, TPC-1 (CCDC6-RET), 24 hrs
Procedure, shortened: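 Luminescent AlphaLISA read of RET abundance in lysates after 24 h compound exposure (37 °C, 2% FBS DMEM) of CCDC6-RET-bearing TPC-1 cells. % degradation relative to DMSO (high) and media (low) controls, fitted to 4-parameter logistic curve for DC50 and Ymax.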

T1 sequence (Q16204+P07949 fused): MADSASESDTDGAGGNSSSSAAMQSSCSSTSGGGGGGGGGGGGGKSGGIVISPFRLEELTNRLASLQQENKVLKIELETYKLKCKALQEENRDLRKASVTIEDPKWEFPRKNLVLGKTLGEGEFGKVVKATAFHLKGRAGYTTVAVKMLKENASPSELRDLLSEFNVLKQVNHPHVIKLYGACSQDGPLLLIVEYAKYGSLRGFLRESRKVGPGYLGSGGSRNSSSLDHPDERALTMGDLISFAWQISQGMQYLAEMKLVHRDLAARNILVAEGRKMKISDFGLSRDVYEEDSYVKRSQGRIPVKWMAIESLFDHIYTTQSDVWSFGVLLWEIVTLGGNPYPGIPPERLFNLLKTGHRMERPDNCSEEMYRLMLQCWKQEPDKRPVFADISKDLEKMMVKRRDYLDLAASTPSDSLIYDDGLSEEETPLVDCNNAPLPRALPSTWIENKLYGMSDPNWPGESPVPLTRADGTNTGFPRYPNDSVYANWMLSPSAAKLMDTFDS
T1 sequence (Q96SW2 whole entry, the tested form may be a part): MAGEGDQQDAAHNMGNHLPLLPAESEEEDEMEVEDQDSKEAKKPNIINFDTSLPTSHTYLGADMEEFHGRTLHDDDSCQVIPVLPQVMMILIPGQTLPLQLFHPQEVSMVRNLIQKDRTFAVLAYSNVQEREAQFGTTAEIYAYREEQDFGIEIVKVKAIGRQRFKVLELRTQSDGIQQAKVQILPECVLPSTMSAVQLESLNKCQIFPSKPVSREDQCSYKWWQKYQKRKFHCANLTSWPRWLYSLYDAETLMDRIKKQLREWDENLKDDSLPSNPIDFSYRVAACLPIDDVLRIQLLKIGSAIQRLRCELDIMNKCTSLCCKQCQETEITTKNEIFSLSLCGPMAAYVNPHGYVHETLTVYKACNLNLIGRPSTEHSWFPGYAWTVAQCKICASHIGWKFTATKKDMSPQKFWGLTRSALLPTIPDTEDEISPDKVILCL
T1 sequence (Q16531 whole entry partner, the tested form may be a part): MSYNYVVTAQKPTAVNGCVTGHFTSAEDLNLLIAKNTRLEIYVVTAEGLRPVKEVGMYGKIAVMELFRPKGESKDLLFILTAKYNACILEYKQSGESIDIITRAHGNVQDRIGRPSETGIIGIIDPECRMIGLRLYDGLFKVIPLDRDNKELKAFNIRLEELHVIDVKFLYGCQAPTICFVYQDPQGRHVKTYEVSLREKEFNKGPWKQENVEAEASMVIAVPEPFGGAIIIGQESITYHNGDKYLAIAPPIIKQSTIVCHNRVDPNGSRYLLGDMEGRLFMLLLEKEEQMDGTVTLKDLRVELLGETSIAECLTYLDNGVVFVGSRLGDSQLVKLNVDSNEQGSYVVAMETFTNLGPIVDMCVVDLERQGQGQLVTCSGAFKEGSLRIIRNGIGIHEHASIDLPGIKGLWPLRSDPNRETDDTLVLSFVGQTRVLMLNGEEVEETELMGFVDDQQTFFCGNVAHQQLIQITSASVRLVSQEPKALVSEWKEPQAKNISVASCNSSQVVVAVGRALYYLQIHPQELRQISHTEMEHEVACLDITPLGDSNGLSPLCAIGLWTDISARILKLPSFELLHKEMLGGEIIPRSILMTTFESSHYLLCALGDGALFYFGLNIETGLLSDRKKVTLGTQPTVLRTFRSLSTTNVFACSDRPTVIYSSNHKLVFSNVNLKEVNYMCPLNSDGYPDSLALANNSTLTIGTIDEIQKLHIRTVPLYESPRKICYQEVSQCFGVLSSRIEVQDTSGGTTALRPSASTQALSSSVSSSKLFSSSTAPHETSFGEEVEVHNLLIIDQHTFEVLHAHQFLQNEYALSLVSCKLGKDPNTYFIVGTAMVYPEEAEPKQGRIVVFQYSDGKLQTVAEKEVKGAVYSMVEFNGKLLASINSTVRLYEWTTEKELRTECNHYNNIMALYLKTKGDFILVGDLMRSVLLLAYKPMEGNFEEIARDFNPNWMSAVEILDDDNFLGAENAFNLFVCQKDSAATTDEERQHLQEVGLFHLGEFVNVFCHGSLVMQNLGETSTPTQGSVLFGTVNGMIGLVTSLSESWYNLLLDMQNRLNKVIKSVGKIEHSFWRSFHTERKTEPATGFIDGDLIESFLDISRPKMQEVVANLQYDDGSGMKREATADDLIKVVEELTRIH

Row | SMILES | Dmax [%] | DC50 [nM]
1 | CCOc1cc(-c2ccc(N3CCC(Cc4ccccc4)(NC(=O)CN4CCC(CN5CCC(c6ccc7c(c6)C(=O)N(C6CCC(=O)NC6=O)C7)CC5)CC4)CC3)nc2)c2c(C#N)cnn2c1 (centres unmarked) [Example 57, N-[4-benzyl-1-[5-(3-cyano-6-ethoxy-pyrazolo[1,5-a]pyridin-4-yl)-2-pyridyl]-4-piperidyl]-2-[4-[[4-[2-(2,6-dioxo-3-piperidyl)-3-oxo-isoindolin-5-yl]-1-piperidyl]methyl]-1-piperidyl]acetamide] | 60 to 90 | 100 to 2000
2 | CCOc1cc(-c2ccc(N3CCC(CN4CCN(C5CN(C(=O)Cc6ccc7c(c6)CN(C6CCC(=O)NC6=O)C7=O)C5)CC4)(NC(=O)c4cc(F)ccc4F)CC3)nc2)c2c(C#N)cnn2c1 (centres unmarked) [Example 62, N-[1-(5-{3-cyano-6-ethoxypyrazolo[1,5-a]pyridin-4-yl}pyridin-2-yl)-4-{[4-(1-{2-[2-(2,6-dioxopiperidin-3-yl)-1-oxo-2,3-dihydro-1H-isoindol-5-yl]acetyl}azetidin-3-yl)piperazin-1-yl]methyl}piperidin-4-yl]-2,5-difluorobenzamide] | 60 to 90 | 2 to 10
3 | CCOc1cc(-c2ccc(N3CCC(CN4CCN(C5CN(C(=O)c6ccc7c(c6)CN(C6CCC(=O)NC6=O)C7=O)C5)CC4)(NC(=O)c4cc(F)ccc4F)CC3)nc2)c2c(C#N)cnn2c1 (centres unmarked) [Example 63, N-[1-(5-{3-cyano-6-ethoxypyrazolo[1,5-a]pyridin-4-yl}pyridin-2-yl)-4-[(4-{1-[2-(2,6-dioxopiperidin-3-yl)-1-oxo-2,3-dihydro-1H-isoindole-5-carbonyl]azetidin-3-yl}piperazin-1-yl)methyl]piperidin-4-yl]-2,5-difluorobenzamide] | 60 to 90 | 2 to 10
4 | CCOc1cc(-c2ccc(N3CCC(CN4CCN(C5CN(C(=O)COc6ccc7c(c6)CN(C6CCC(=O)NC6=O)C7=O)C5)CC4)(NC(=O)c4cc(F)ccc4F)CC3)nc2)c2c(C#N)cnn2c1 (centres unmarked) [Example 65, N-[1-(5-{3-cyano-6-ethoxypyrazolo[1,5-a]pyridin-4-yl}pyridin-2-yl)-4-({4-[1-(2-{[2-(2,6-dioxopiperidin-3-yl)-1-oxo-2,3-dihydro-1H-isoindol-5-yl]oxy}acetyl)azetidin-3-yl]piperazin-1-yl}methyl)piperidin-4-yl]-2,5-difluorobenzamide] | 60 to 90 | 2 to 10
5 | CCOc1cc(-c2ccc(N3CCC(CN4CCN(C(=O)CCN5CCC(c6ccc7c(c6)C(=O)N(C6CCC(=O)NC6=O)C7)CC5)CC4)(C(=O)NC(C)C)CC3)nc2)c2c(C#N)cnn2c1 (centres unmarked) [Example 76, 1-(5-(3-cyano-6-ethoxypyrazolo[1,5-a]pyridin-4-yl)pyridin-2-yl)-4-((4-(3-(4-(2-(2,6-dioxopiperidin-3-yl)-3-oxoisoindolin-5-yl)piperidin-1-yl)propanoyl)piperazin-1-yl)methyl)-N-isopropylpiperidine-4-carboxamide] | 60 to 90 | 10 to 100
6 | CCOc1cc(-c2ccc(N3CCC(CN4CCN(C(=O)C5CC6(C5)CC(C(=O)N5CCN(c7ccc8c(c7)CN(C7CCC(=O)NC7=O)C8=O)CC5)C6)CC4)(NC(=O)c4cc(F)ccc4F)CC3)nc2)c2c(C#N)cnn2c1 (centres unmarked) [Example 85, N-[1-(5-{3-cyano-6-ethoxypyrazolo[1,5-a]pyridin-4-yl}pyridin-2-yl)-4-{[4-(6-{4-[2-(2,6-dioxopiperidin-3-yl)-1-oxo-2,3-dihydro-1H-isoindol-5-yl]piperazine-1-carbonyl}spiro[3.3]heptane-2-carbonyl)piperazin-1-yl]methyl}piperidin-4-yl]-2,5-difluorobenzamide] | 60 to 90 | < 2
7 | CCOc1cc(-c2ccc(N3CCC(CN4CCN(C(=O)C5CC6(C5)CC(C(=O)N5CCN(c7ccc8c(c7)C(=O)N(C7CCC(=O)NC7=O)C8)CC5)C6)CC4)(NC(=O)c4cc(F)ccc4F)CC3)nc2)c2c(C#N)cnn2c1 (centres unmarked) [Example 86, N-[1-(5-{3-cyano-6-ethoxypyrazolo[1,5-a]pyridin-4-yl}pyridin-2-yl)-4-{[4-(6-{4-[2-(2,6-dioxopiperidin-3-yl)-3-oxo-2,3-dihydro-1H-isoindol-5-yl]piperazine-1-carbonyl}spiro[3.3]heptane-2-carbonyl)piperazin-1-yl]methyl}piperidin-4-yl]-2,5-difluorobenzamide] | > 90 | < 2
8 | CCOc1cc(-c2ccc(N3CCC(CN4CCC5(CC4)CCN(C(=O)CCN4CCN(c6ccc7c(c6)CN(C6CCC(=O)NC6=O)C7=O)CC4)CC5)(NC(=O)c4cc(F)ccc4F)CC3)nc2)c2c(C#N)cnn2c1 (centres unmarked) [Example 87, N-[1-(5-{3-cyano-6-ethoxypyrazolo[1,5-a]pyridin-4-yl}pyridin-2-yl)-4-{[9-(3-{4-[2-(2,6-dioxopiperidin-3-yl)-1-oxo-2,3-dihydro-1H-isoindol-5-yl]piperazin-1-yl}propanoyl)-3,9-diazaspiro[5.5]undecan-3-yl]methyl}piperidin-4-yl]-2,5-difluorobenzamide] | > 90 | 2 to 10
9 | CCOc1cc(-c2ccc(N3CCC(CN4CCC5(CC4)CCN(C(=O)CCN4CCC(c6ccc7c(c6)CN(C6CCC(=O)NC6=O)C7=O)CC4)CC5)(NC(=O)c4cc(F)ccc4F)CC3)nc2)c2c(C#N)cnn2c1 (centres unmarked) [Example 88, N-[1-(5-{3-cyano-6-ethoxypyrazolo[1,5-a]pyridin-4-yl}pyridin-2-yl)-4-{[9-(3-{4-[2-(2,6-dioxopiperidin-3-yl)-1-oxo-2,3-dihydro-1H-isoindol-5-yl]piperidin-1-yl}propanoyl)-3,9-diazaspiro[5.5]undecan-3-yl]methyl}piperidin-4-yl]-2,5-difluorobenzamide] | > 90 | 10 to 100
10 | CCOc1cc(-c2ccc(N3CCC(CN4CC5(C4)CN(C(=O)CCN4CCC(c6ccc7c(c6)CN(C6CCC(=O)NC6=O)C7=O)CC4)C5)(NC(=O)c4cc(F)ccc4F)CC3)nc2)c2c(C#N)cnn2c1 (centres unmarked) [Example 89, N-[1-(5-{3-cyano-6-ethoxypyrazolo[1,5-a]pyridin-4-yl}pyridin-2-yl)-4-{[6-(3-{4-[2-(2,6-dioxopiperidin-3-yl)-1-oxo-2,3-dihydro-1H-isoindol-5-yl]piperidin-1-yl}propanoyl)-2,6-diazaspiro[3.3]heptan-2-yl]methyl}piperidin-4-yl]-2,5-difluorobenzamide] | > 90 | 10 to 100

Second part, the compound after the results:

Row | Dmax [%] | DC50 [nM] | SMILES
11 | > 90 | < 2 | CCOc1cc(-c2ccc(N3CCC(CN4CCN(C5CN(C(=O)c6ccc7c(N8CCC(=O)NC8=O)nn(C)c7c6)C5)CC4)(NC(=O)c4cc(F)ccc4F)CC3)nc2)c2c(C#N)cnn2c1 [Example 64, N-[1-(5-{3-cyano-6-ethoxypyrazolo[1,5-a]pyridin-4-yl}pyridin-2-yl)-4-[(4-{1-[3-(2,4-dioxo-1,3-diazinan-1-yl)-1-methyl-1H-indazole-6-carbonyl]azetidin-3-yl}piperazin-1-yl)methyl]piperidin-4-yl]-2,5-difluorobenzamide]
12 | 60 to 90 | < 2 | CCOc1cc(-c2ccc(N3CCC(Cc4ccccc4)(NC(=O)C4CCN(C(=O)CCN5CCC(c6ccc7c(c6)CN(C6CCC(=O)NC6=O)C7=O)CC5)CC4)CC3)nc2)c2c(C#N)cnn2c1 (centres unmarked) [Example 66, N-[4-benzyl-1-(5-{3-cyano-6-ethoxypyrazolo[1,5-a]pyridin-4-yl}pyridin-2-yl)piperidin-4-yl]-1-(3-{4-[2-(2,6-dioxopiperidin-3-yl)-1-oxo-2,3-dihydro-1H-isoindol-5-yl]piperidin-1-yl}propanoyl)piperidine-4-carboxamide]
13 | > 90 | < 2 | CCOc1cc(-c2ccc(N3CCC(CN4CCC(CN5CCN(c6ccc7c(c6)CN(C6CCC(=O)NC6=O)C7=O)CC5)CC4)(NC(=O)c4cc(F)ccc4F)CC3)nc2)c2c(C#N)cnn2c1 (centres unmarked) [Example 69, N-(1-(5-(3-cyano-6-ethoxypyrazolo[1,5-a]pyridin-4-yl)pyridin-2-yl)-4-((4-((4-(2-(2,6-dioxopiperidin-3-yl)-1-oxoisoindolin-5-yl)piperazin-1-yl)methyl)piperidin-1-yl)methyl)piperidin-4-yl)-2,5-difluorobenzamide]
14 | > 90 | < 2 | CCOc1cc(-c2ccc(N3CCC(CN4CCC(N5CC(N6CCC(c7ccc8c(c7)C(=O)N(C7CCC(=O)NC7=O)C8)CC6)C5)CC4)(NC(=O)c4cc(F)ccc4F)CC3)nc2)c2c(C#N)cnn2c1 (centres unmarked) [Example 71, N-(1-(5-(3-cyano-6-ethoxypyrazolo[1,5-a]pyridin-4-yl)pyridin-2-yl)-4-((4-(3-(4-(2-(2,6-dioxopiperidin-3-yl)-3-oxoisoindolin-5-yl)piperidin-1-yl)azetidin-1-yl)piperidin-1-yl)methyl)piperidin-4-yl)-2,5-difluorobenzamide]
15 | 60 to 90 | < 2 | CCOc1cc(-c2ccc(N3CCC(CN4CCN(C(=O)CCN5CCN(c6ccc7c(c6)CN(C6CCC(=O)NC6=O)C7=O)CC5)CC4)(C(=O)NC(C)C)CC3)nc2)c2c(C#N)cnn2c1 (centres unmarked) [Example 77, 1-(5-(3-Cyano-6-ethoxypyrazolo[1,5-a]pyridin-4-yl)pyridin-2-yl)-4-((4-(3-(4-(2-(2,6-dioxopiperidin-3-yl)-1-oxoisoindolin-5-yl)piperazin-1-yl)propanoyl)piperazin-1-yl)methyl)-N-isopropylpiperidine-4-carboxamide]
16 | > 90 | < 2 | CCOc1cc(-c2ccc(N3CCC(CN4CCN(C(=O)C5CC6(CC(C(=O)Nc7ccc8c(N9CCC(=O)NC9=O)nn(C)c8c7)C6)C5)CC4)(NC(=O)c4cc(F)ccc4F)CC3)nc2)c2c(C#N)cnn2c1 (centres unmarked) [Example 84, 6-(4-{[1-(5-{3-cyano-6-ethoxypyrazolo[1,5-a]pyridin-4-yl}pyridin-2-yl)-4-(2,5-difluorobenzamido)piperidin-4-yl]methyl}piperazine-1-carbonyl)-N-[3-(2,4-dioxo-1,3-diazinan-1-yl)-1-methyl-1H-indazol-6-yl]spiro[3.3]heptane-2-carboxamide]
